Among the data in ChEMBL document CHEMBL1133958, “Derivatives of (2R,3R,4S)-2-aminomethylpyrrolidine-3,4-diol are selective alpha-mannosidase inhibitors” (Bioorg Med Chem Lett, 2001) are inhibition, IC50 and Ki values, retold here.

Structures are written as SMILES. Active and inactive are the calls of the source. No cut-off for these calls is given here.

Experiment [1] concerns the target T1, Alpha-glucosidase (Oryza sativa Japonica Group) (UniProt Q9LGC6).
T1 sequence (whole entry): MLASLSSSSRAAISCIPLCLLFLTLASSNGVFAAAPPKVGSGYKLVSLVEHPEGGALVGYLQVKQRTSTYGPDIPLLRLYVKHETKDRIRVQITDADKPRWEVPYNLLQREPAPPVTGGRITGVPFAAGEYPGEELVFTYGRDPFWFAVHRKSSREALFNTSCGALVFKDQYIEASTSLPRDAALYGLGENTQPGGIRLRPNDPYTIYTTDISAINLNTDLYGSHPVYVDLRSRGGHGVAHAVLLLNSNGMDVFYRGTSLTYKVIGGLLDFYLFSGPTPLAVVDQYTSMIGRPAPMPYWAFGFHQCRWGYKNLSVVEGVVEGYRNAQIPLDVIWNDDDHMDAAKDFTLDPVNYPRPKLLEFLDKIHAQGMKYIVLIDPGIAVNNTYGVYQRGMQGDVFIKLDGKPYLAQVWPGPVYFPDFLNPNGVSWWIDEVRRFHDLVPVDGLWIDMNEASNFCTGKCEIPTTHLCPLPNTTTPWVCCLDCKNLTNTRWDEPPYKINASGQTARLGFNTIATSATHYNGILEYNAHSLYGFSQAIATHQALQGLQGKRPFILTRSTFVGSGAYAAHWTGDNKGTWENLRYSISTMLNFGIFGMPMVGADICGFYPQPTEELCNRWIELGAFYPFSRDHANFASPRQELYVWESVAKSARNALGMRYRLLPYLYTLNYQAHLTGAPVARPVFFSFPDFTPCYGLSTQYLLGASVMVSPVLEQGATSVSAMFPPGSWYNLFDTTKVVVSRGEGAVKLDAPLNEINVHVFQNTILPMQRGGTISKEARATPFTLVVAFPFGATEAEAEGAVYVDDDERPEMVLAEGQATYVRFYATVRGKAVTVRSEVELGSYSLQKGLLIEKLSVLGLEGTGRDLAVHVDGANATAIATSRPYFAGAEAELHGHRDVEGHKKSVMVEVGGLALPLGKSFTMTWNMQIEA
The experiment is described as follows: Percentage inhibition of Alpha-glucosidase from Rice (maltase) at 1 mM; […].

In experiment [2] the test system is Saccharomyces cerevisiae. Description: Percentage inhibition of Alpha-glucosidase from Yeast (maltase) at 1 mM.
Experiment [3] deals with Beta-galactosidase (Escherichia coli K-12) (UniProt P00722). The experiment is described as follows: Percentage inhibition of Beta-galactosidase from Escherichia coli at 1 mM concentration; No inhibition.
Experiment [4] addresses T2, Glucoamylase 1 (Rhizopus oryzae) (UniProt P07683).
T2 sequence (whole entry): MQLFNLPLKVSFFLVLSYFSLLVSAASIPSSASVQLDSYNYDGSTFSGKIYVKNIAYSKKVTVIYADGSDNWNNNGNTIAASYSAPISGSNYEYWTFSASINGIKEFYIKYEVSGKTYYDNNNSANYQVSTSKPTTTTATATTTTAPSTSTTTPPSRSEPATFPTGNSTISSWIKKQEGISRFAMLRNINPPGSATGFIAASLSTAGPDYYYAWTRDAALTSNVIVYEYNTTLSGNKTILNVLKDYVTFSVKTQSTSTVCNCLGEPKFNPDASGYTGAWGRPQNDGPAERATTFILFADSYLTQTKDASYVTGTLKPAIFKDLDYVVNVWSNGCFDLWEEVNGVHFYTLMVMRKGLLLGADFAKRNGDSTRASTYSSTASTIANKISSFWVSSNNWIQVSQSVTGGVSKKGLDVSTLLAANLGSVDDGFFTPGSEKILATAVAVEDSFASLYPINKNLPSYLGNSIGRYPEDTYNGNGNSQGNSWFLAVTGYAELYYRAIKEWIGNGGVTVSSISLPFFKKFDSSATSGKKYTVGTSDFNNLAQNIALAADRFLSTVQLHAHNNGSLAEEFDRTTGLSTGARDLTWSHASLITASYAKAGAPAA
Description: Percentage inhibition of Alpha-glucosidase from Rhizopus mold (amyloglucosidase) at 1 mM concentration; No inhibition. As to conditions: Rhizopus arrhizus.

For experiment [5], the system named is Alpha-mannosidase (Prunus dulcis). The experiment is described as follows: Percentage inhibition of Alpha-mannosidase from Almond at 1 mM.
Experiment [6] is described as follows: Inhibitory activity towards Alpha-glucosidase from Baker yeast (isomaltase). The arrangement: species or system Saccharomyces cerevisiae.
Experiment [7] concerns the target T3, Beta-galactosidase (Aspergillus niger) (UniProt P29853).
T3 sequence (whole entry): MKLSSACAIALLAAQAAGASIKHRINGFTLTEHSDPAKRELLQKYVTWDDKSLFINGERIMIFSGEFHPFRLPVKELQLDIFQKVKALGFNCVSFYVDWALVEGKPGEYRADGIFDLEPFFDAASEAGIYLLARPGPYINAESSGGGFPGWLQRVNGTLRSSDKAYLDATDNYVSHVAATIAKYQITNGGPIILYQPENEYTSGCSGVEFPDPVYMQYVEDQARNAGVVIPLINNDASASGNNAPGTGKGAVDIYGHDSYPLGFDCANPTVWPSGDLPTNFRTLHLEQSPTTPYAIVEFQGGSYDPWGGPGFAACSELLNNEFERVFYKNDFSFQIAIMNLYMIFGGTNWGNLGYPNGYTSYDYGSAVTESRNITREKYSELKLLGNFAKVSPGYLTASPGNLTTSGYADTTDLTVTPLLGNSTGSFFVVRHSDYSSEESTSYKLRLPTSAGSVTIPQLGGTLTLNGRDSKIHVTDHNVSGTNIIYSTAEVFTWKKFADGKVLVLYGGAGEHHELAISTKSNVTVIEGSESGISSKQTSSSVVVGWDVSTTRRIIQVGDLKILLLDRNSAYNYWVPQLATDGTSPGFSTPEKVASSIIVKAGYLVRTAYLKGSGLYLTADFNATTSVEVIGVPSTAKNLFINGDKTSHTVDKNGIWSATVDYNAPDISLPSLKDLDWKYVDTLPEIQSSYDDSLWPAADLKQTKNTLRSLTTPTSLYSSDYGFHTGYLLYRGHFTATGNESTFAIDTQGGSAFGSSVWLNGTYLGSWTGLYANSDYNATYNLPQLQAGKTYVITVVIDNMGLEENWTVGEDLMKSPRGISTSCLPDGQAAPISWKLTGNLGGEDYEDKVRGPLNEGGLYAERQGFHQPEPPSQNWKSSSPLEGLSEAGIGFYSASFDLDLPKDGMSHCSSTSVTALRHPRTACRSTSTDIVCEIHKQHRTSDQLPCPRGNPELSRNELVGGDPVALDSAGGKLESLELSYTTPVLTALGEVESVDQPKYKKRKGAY
The experiment is described as follows: Percentage inhibition of Beta-galactosidase from Aspergillus niger at 1 mM concentration.

Experiment [8] concerns the target Glucoamylase (Aspergillus niger) (UniProt P69328). Description: Percentage inhibition of Alpha-glucosidase from Aspergillus niger (amyloglucosidase) at 1 mM; No inhibition.
Experiment [9] has as its target Beta-glucosidase A (Caldicellulosiruptor saccharolyticus) (UniProt P10482). Description: Percentage inhibition of Beta-Glucosidase from Caldocellum saccharol. at 1 mM.
The target in experiment [10] is T4, Beta-galactosidase (Bos taurus) (UniProt Q58D55).
T4 sequence (whole entry): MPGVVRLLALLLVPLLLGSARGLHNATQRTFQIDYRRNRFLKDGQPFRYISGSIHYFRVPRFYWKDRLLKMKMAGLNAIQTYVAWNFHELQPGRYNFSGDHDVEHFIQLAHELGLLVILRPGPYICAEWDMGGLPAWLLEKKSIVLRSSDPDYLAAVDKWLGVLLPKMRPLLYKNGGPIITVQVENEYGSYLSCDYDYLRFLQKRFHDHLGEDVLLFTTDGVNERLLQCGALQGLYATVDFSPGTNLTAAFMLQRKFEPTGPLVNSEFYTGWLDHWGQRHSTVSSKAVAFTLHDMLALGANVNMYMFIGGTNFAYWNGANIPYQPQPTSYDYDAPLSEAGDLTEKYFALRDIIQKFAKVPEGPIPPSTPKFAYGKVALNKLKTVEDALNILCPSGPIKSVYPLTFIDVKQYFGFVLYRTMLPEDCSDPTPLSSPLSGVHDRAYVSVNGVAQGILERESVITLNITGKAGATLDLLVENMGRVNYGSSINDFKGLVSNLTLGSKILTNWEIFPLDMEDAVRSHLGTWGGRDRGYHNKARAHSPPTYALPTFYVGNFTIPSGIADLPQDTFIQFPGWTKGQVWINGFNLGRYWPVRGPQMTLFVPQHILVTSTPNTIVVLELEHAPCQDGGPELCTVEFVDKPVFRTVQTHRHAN
Description: Percentage inhibition of Beta-galactosidase from Bovine liver at 1 mM concentration; No inhibition.

The subject of experiment [11] is Saccharomyces cerevisiae. Description: Percentage inhibition of Alpha-glucosidase from Baker yeast (isomaltase) at 1 mM.
A short description of experiment [12]: Percentage inhibition of Beta-galactosidase from Aspergillus oryzae at 1 mM; No inhibition.
The target of experiment [13] is Beta-glucosidase A (Caldicellulosiruptor saccharolyticus) (UniProt P10482). The experiment is described as follows: Percentage inhibition of Beta-Glucosidase from Caldocellum saccharol. at 1 mM; No inhibition.
The subject of experiment [14] is Saccharomyces cerevisiae. The experiment is described as follows: Percentage inhibition of Alpha-glucosidase from Yeast (maltase) at 1 mM; […].
Experiment [15] deals with T3, Beta-galactosidase (Aspergillus niger). The experiment is described as follows: Percentage inhibition of Beta-galactosidase from Aspergillus niger at 1 mM concentration; […].
Experiment [16] deals with T4, Beta-galactosidase (Bos taurus). The experiment is described as follows: Percentage inhibition of Beta-galactosidase from Bovine liver at 1 mM concentration.
Experiment [17] deals with Saccharomyces cerevisiae. Description: Percentage inhibition of Alpha-glucosidase from Baker yeast (isomaltase) at 1 mM; No inhibition.
Experiment [18] addresses Beta-galactosidase (Escherichia coli K-12) (UniProt P00722). The experiment is described as follows: Percentage inhibition of Beta-galactosidase from Escherichia coli at 1 mM concentration.
A short description of experiment [19]: Percentage inhibition of Beta-galactosidase from Jack bean at 1 mM concentration; No inhibition. As to conditions: Canavalia ensiformis.

Beta-glucosidase A (Caldicellulosiruptor saccharolyticus), sequence (P10482 whole entry): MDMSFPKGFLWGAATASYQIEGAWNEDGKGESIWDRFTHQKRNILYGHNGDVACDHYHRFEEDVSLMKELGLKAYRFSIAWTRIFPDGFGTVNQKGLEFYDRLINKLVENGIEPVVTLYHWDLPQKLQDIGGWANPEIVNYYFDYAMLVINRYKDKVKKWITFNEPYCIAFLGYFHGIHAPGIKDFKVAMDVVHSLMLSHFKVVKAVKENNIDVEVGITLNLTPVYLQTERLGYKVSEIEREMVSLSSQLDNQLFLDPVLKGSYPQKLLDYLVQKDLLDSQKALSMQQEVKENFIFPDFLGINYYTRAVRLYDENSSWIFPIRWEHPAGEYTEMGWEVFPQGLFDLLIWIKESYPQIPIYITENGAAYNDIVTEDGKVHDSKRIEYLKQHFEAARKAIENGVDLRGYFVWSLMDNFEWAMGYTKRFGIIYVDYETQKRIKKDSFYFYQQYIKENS
Beta-galactosidase (Escherichia coli K-12), sequence (P00722 whole entry): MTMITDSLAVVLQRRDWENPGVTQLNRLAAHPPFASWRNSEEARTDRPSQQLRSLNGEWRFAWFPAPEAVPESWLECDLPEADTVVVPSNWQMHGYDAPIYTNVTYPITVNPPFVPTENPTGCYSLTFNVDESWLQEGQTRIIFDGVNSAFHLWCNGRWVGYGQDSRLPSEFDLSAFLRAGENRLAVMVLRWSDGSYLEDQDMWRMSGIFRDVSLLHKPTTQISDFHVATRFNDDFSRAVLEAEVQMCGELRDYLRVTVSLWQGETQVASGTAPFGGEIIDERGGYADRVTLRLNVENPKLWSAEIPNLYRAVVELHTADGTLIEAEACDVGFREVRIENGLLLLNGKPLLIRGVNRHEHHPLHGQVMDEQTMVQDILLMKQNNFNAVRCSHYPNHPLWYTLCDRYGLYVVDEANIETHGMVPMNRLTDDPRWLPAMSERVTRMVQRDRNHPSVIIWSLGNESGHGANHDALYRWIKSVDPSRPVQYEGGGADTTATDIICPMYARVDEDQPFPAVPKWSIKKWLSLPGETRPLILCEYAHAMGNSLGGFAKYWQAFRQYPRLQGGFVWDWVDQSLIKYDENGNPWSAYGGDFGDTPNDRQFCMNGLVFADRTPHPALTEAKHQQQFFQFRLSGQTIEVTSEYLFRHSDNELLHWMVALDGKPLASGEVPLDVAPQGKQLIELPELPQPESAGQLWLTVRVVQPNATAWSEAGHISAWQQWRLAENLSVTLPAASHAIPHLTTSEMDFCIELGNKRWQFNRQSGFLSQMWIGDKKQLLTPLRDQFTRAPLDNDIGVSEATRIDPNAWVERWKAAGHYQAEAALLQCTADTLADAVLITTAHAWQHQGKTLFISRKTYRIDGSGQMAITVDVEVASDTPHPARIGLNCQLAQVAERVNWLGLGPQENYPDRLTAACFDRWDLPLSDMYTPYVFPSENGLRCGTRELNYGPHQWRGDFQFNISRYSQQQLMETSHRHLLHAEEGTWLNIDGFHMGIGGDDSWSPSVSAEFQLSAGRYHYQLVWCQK
Glucoamylase (Aspergillus niger), sequence (P69328 whole entry): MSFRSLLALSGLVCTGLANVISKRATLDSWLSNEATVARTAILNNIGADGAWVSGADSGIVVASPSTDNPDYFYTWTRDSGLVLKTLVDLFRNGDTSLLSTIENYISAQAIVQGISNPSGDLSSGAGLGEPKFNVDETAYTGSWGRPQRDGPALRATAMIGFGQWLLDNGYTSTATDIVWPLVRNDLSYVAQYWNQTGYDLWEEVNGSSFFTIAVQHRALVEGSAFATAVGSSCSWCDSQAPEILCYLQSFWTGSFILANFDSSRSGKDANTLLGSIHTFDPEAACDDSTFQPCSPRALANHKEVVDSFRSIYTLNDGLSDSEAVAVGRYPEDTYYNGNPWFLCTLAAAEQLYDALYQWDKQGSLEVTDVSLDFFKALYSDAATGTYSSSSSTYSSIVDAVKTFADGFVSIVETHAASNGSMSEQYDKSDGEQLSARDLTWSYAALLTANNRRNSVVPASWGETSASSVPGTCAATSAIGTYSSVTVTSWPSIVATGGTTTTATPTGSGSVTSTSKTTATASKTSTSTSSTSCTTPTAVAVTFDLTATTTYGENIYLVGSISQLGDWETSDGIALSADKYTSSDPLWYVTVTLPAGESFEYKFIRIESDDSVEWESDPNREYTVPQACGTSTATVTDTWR

One may read the inhibition as how much of the control response was suppressed. In general, IC50 refers to the concentration that inhibits the measured activity by half. The term Ki denotes the dissociation constant of the complex between target and ligand, obtained from inhibition or displacement. A lower Ki goes with a stronger hold on the target. For the compound `OC1CNC(CNC2CCCC2)C1O` (stereo not drawn), the inhibition result in experiment [1], in experiment [3], in experiment [4], in [8], in [10] and in [12] was “inactive” in each case. For the same compound, the inhibition is 30% in the experiment with Saccharomyces cerevisiae [2]; 53% in [5]; 26% in experiment [7]; 29% in [9]; 92% in the experiment on Saccharomyces cerevisiae [11]. It took 170 µM to reach half-maximal inhibition in [6] (IC50). Besides, the affinity in experiment [6] corresponds to a Ki of 71 µM.
With `OC1CNC(CNCc2ccccc2)C1O` (stereo not drawn), the inhibition entry (in experiment [1]; in experiment [13]; in the experiment with Saccharomyces cerevisiae [14]; in experiment [15]; in experiment [4]; in the experiment on Saccharomyces cerevisiae [17]) was “inactive” throughout. For the same compound, the inhibition entry in experiment [8] and in experiment [12] was “inactive” throughout. Also, the inhibition came out at 26% in [16] and 24% in experiment [18].
Consider `C[C@@H](NCC1NCC(O)C1O)c1ccccc1` (stereo partly drawn), for which the inhibition entry (in [1]; with Saccharomyces cerevisiae [14]; in [15]; in experiment [4]; in experiment [8]; in [10]) was “inactive” each time. Also, in experiment [12], the inhibition entry was “inactive”. In addition, the inhibition in experiment [5] came out at 48%; in experiment [18], 34%; in experiment [9], 49%; in the experiment with Saccharomyces cerevisiae [11] it was 34%.
Turning to `OC1CNC(CNCc2cccs2)C1O` (stereo not drawn), the inhibition result (in [1]; in the experiment with Saccharomyces cerevisiae [14]; in experiment [15]; in experiment [3]; in [4]; in experiment [8]) was “inactive” each time. Also, the inhibition entry in experiment [10] and in experiment [12] was “inactive” throughout. Further, the values for the inhibition (in [5]; in experiment [9]; in the experiment with Saccharomyces cerevisiae [11]) were 68%, 38% and 23%, respectively.
For `OC1CNC(CCNc2ccccc2)C1O` (stereo not drawn), the inhibition entry (in [1]; in [13]; in the experiment with Saccharomyces cerevisiae [14]; in [15]; in [19]; in [3]) was “inactive” in each case. Moreover, the inhibition entry (in [4]; with Saccharomyces cerevisiae [17]; in experiment [8]; in experiment [10]; in experiment [12]) was “inactive” each time.
As to `CC(=O)N(Cc1ccccc1)CC1NCC(O)C1O` (stereo not drawn), the inhibition result (in experiment [1]; in the experiment with Saccharomyces cerevisiae [14]; in experiment [15]; in experiment [19]; in experiment [3]; in [4]) was “inactive” in each case. For the same compound, the inhibition entry in experiment [8], in experiment [10] and in experiment [12] was “inactive” in each case. For the same compound, the figures for the inhibition (in [9]; in the experiment with Saccharomyces cerevisiae [11]) were 43% and 33%, respectively.
For the compound `OCC(O)[C@H]1NC[C@H](O)[C@@H]1O` (stereo partly drawn), the inhibition entry (in experiment [1]; in the experiment with Saccharomyces cerevisiae [14]; in experiment [15]; in experiment [19]; in experiment [3]; in [4]) was “inactive” in each case. For the same compound, the inhibition result (with Saccharomyces cerevisiae [17]; in [8]; in experiment [12]) was “inactive” each time. The values for the inhibition in [16] and in experiment [9] were 32% and 40%, respectively.
